Assay results published in patent publication US8461083B2, “Herbicidal compounds” (Syngenta Limited, priority 2008, dated 2013).

Key:
Format in all cases: in vivo
Setaria faberi (SETFA) [1] = test: Pre-emergence herbicidal glasshouse test; conditions: pre-emergence (sprayed after one day cultivation), evaluated after 13 days, 100=total damage to plant, 0=no damage to plant; for pest or weed control at 1000 g/ha: Setaria faberi, 312 h, read-out: PRE Application SETFA, damage to plant; for PRE Application SETFA, damage to plant: 1000 g/ha
How it was run: (§1)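 Pots of SETFA, SOLNI, AMARE and ALOMY sprayed 1 day (pre-) or 8 days (post-emergence) after sowing at 1000 g/ha, formulated in acetone/water (50:50) with 0.5% Tween 20. Glasshouse at 24/16° C day/night, 14 h light, 65% humidity. Damage scored 0–100 after 13 days.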

Solanum nigrum (SOLNI) [2] = test: Pre-emergence herbicidal glasshouse test; conditions: pre-emergence (sprayed after one day cultivation), evaluated after 13 days, 100=total damage to plant, 0=no damage to plant; for pest or weed control at 1000 g/ha: Solanum nigrum, 312 h, read-out: PRE Application SOLNI, damage to plant; for PRE Application SOLNI, damage to plant: 1000 g/ha
How it was run: as §1

[3] = test system: Alopecurus myosuroides (ALOMY); test: Pre-emergence herbicidal glasshouse test; conditions: pre-emergence (sprayed after one day cultivation), evaluated after 13 days, 100=total damage to plant, 0=no damage to plant; for pest or weed control at 1000 g/ha: Alopecurus myosuroides, 312 h, read-out: PRE Application ALOMY, damage to plant; for PRE Application ALOMY, damage to plant: 1000 g/ha
How it was run: as §1

[4] = test system: Amaranthus retoflexus (AMARE); test: Pre-emergence herbicidal glasshouse test; conditions: pre-emergence (sprayed after one day cultivation), evaluated after 13 days, 100=total damage to plant, 0=no damage to plant; for pest or weed control at 1000 g/ha: Amaranthus retroflexus, 312 h, read-out: PRE Application AMARE, damage to plant; for PRE Application AMARE, damage to plant: 1000 g/ha
How it was run: as §1

[5] = test system: Echinochloa crus-galli (ECHCG); test: Pre-emergence herbicidal glasshouse test; conditions: pre-emergence (sprayed after one day cultivation), evaluated after 13 days, 100=total damage to plant, 0=no damage to plant; for pest or weed control at 1000 g/ha: Echinochloa crus-galli, 312 h, read-out: PRE Application ECHCG, damage to plant; for PRE Application ECHCG, damage to plant: 1000 g/ha
How it was run: (§2)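 Spray at 1000 g/ha, acetone/water 50:50 + 0.5% Tween 20; pre-em 1 d post-sowing, post-em 8 d post-sowing. Glasshouse 24/16 °C, 14 h light, 65% RH, watered twice daily. Visual damage score 0–100 at 13 d.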

Setaria faberi (SETFA) [6] = test: Post-emergence herbicidal glasshouse test; conditions: post-emergence (sprayed after 8 days cultivation), evaluated after 13 days, 100=total damage to plant, 0=no damage to plant; for pest or weed control at 1000 g/ha: Setaria faberi, 312 h, read-out: POST Application SETFA, damage to plant; for POST Application SETFA, damage to plant: 1000 g/ha
How it was run: as §1

Solanum nigrum (SOLNI) [7] = test: Post-emergence herbicidal glasshouse test; conditions: post-emergence (sprayed after 8 days cultivation), evaluated after 13 days, 100=total damage to plant, 0=no damage to plant; for pest or weed control at 1000 g/ha: Solanum nigrum, 312 h, read-out: POST Application SOLNI, damage to plant; for POST Application SOLNI, damage to plant: 1000 g/ha
How it was run: as §1

[8] = test system: Alopecurus myosuroides (ALOMY); test: Post-emergence herbicidal glasshouse test; conditions: post-emergence (sprayed after 8 days cultivation), evaluated after 13 days, 100=total damage to plant, 0=no damage to plant; for pest or weed control at 1000 g/ha: Alopecurus myosuroides, 312 h, read-out: POST Application ALOMY, damage to plant; for POST Application ALOMY, damage to plant: 1000 g/ha
How it was run: as §1

[9] = test system: Amaranthus retoflexus (AMARE); test: Post-emergence herbicidal glasshouse test; conditions: post-emergence (sprayed after 8 days cultivation), evaluated after 13 days, 100=total damage to plant, 0=no damage to plant; for pest or weed control at 1000 g/ha: Amaranthus retroflexus, 312 h, read-out: POST Application AMARE, damage to plant; for POST Application AMARE, damage to plant: 1000 g/ha
How it was run: as §1

[10] = test system: Echinochloa crus-galli (ECHCG); test: Post-emergence herbicidal glasshouse test; conditions: post-emergence (sprayed after 8 days cultivation), evaluated after 13 days, 100=total damage to plant, 0=no damage to plant; for pest or weed control at 1000 g/ha: Echinochloa crus-galli, 312 h, read-out: POST Application ECHCG, damage to plant; for POST Application ECHCG, damage to plant: 1000 g/ha
How it was run: as §2

| SMILES | pest or weed control at 1000 g/ha (Setaria faberi (SETFA) [1]) [%] | pest or weed control at 1000 g/ha (Solanum nigrum (SOLNI) [2]) [%] | pest or weed control at 1000 g/ha [3] [%] | pest or weed control at 1000 g/ha [4] [%] | pest or weed control at 1000 g/ha [5] [%] | pest or weed control at 1000 g/ha (Setaria faberi (SETFA) [6]) [%] | pest or weed control at 1000 g/ha (Solanum nigrum (SOLNI) [7]) [%] | pest or weed control at 1000 g/ha [8] [%] | pest or weed control at 1000 g/ha [9] [%] | pest or weed control at 1000 g/ha [10] [%] | PRE Application SETFA, damage to plant (Setaria faberi (SETFA) [1]) | PRE Application SOLNI, damage to plant (Solanum nigrum (SOLNI) [2]) | PRE Application ALOMY, damage to plant [3] | PRE Application AMARE, damage to plant [4] | PRE Application ECHCG, damage to plant [5] | POST Application SETFA, damage to plant (Setaria faberi (SETFA) [6]) | POST Application SOLNI, damage to plant (Solanum nigrum (SOLNI) [7]) | POST Application ALOMY, damage to plant [8] | POST Application AMARE, damage to plant [9] | POST Application ECHCG, damage to plant [10] |
| --- | --- | --- | --- | --- | --- | --- | --- | --- | --- | --- | --- | --- | --- | --- | --- | --- | --- | --- | --- | --- |
| O=C1CCCC(=O)C1C(=O)c1cc2ccc(=O)n(C3CCCC3)c2nc1C(F)(F)F [Compound 2.8, 2-{8-cyclopentyl-7-oxo-7,8-dihydro-2-trifluoromethyl-[1,8]-naphthyridine-3-carbony}-cyclohexane-1,3-dione] | 70 | 90 | 30 | 80 | 70 | 90 | 90 | 70 | 70 | 80 |  |  |  |  |  |  |  |  |  |  |
| CCc1nc2nc(C(F)(F)F)c(C(=O)C3C(=O)CCCC3=O)cc2cc1F [Compound 1.67, 2-[7-ethyl-6-fluoro-2-trifluoromethyl-[1,8]-naphthyridine-3-carbony]-cyclohexane-1,3-dione] |  |  |  |  |  |  |  |  |  |  | 100 | 100 | 90 | 100 | 100 | 90 | 100 | 90 | 80 | 90 |
| CCCCC(C)Oc1ccc2cc(C(=O)C3C(=O)CCCC3=O)c(C(F)(F)F)nc2n1 (stereo not shown) [Compound 1.56] |  |  |  |  |  |  |  |  |  |  | 90 | 100 | 20 | 40 | 80 | 80 | 80 | 30 | 70 | 70 |
| Cn1c(=O)ccc2cc(C(=O)C3C(=O)CCCC3=O)c(C(F)(F)F)nc21 [Compound 2.21, 2-(8-methyl-7-oxo-7,8-dihydro-2-trifluoromethyl-[1,8]-naphthyridine-3-carbony)-cyclohexane-1,3-dione] | 100 | 100 | 90 | 100 | 100 | 80 | 80 | 80 | 90 | 70 |  |  |  |  |  |  |  |  |  |  |
| Cc1nc2nc(C(F)F)c(C(=O)C3C(=O)CCCC3=O)cc2cc1F [Compound 1.78, 2-(2-difluoromethyl-6-fluoro-7-methyl-[1,8]-naphthyridine-3-carbonyl)-cyclohexane-1,3-dione] | 100 | 100 | 80 | 100 | 100 | 90 | 80 | 60 | 100 | 90 |  |  |  |  |  |  |  |  |  |  |
| N#CCn1c(=O)ccc2cc(C(=O)C3C(=O)CCCC3=O)c(C(F)(F)F)nc21 [Compound 2.3] |  |  |  |  |  |  |  |  |  |  | 60 | 90 | 20 | 90 | 80 | 90 | 90 | 20 | 90 | 80 |
| O=C1CCCC(=O)C1C(=O)c1cc2ccc(=O)n(Cc3ccccc3F)c2nc1C(F)(F)F [Compound 2.12] |  |  |  |  |  |  |  |  |  |  | 90 | 90 | 80 | 60 | 90 | 90 | 100 | 70 | 70 | 70 |
